Experimental findings from article PMC5177923 (2016) are described below.

Test [1] has as its system hTeloCFRET (DNA, i motif) TAACCCTAACCCTAACCCTAACCC
Description: FRET melting. The note with it: 100 mM NaCl; 10 mM sodium cacodylate pH 6; 10 μM compound, 200 nM DNA.

Test [2] relates to hTeloGFRET (DNA, G4) GGGTTAGGGTTAGGGTTAGGG
Description: FRET melting. The note with it: 100 mM NaCl; 10 mM sodium cacodylate pH 7.4; 10 μM compound, 200 nM DNA.

Test [3] concerns hTeloCBiotin (DNA, i motif) TAACCCTAACCCTAACCCTAACCC
Description: SPR, equilibrium affinity fit, 1:1 model. As to conditions: 100 mM NaCl; 10 mM sodium cacodylate pH 5.5, 0.05% Tween-20, 5% DMSO, 25 °C. In general terms: Surface plasmon resonance follows binding to a sensor surface in real time, without labels.

For test [4], the system named is DSBiotin (DNA, duplex) GGCATAGTGCGTGGGCGTTAGC/GCTAACGCCCACGCACTATGCC
In words: SPR, equilibrium affinity fit, 1:1 model. The note with it: 100 mM NaCl; 10 mM sodium cacodylate pH 5.5, 0.05% Tween-20, 5% DMSO, 25 °C.

The test system of test [5] is hTeloC (DNA, i motif) TAACCCTAACCCTAACCCTAACCC
Description: circular dichroism. The note with it: 100 mM NaCl; 10 mM sodium cacodylate pH 5.5, 20 °C.

Test [6] deals with DSFRET (DNA, hairpin, HEG(18) linker (non-nucleotide) between 10 and 11) TATAGCTATATATAGCTATA
Description: FRET melting. As to conditions: 100 mM NaCl; 10 mM sodium cacodylate pH 7.4; 10 μM compound, 200 nM DNA.

For test [7], the system named is c-mycBiotin (DNA, i motif) CCTTCCCCACCCTCCCCACCCTCCCCA
In words: SPR, equilibrium affinity fit, 1:1 model. The note with it: 100 mM NaCl; 10 mM sodium cacodylate pH 5.5, 0.05% Tween-20, 5% DMSO, 25 °C.

For `CN(C)CCNc1cccc2c1C(=O)c1cccc(NCCNc3ccccc3)c1C2=O`, the ΔTm entry is “+17 °C” in test [1] and “+0.4 °C” in test [2].
The Kd is the constant that tells how readily two partners part at equilibrium. Read a high Kd as lower affinity. Take `O=C1c2c(O)ccc(O)c2C(=O)c2c(NCCNCCO)ccc(NCCNCCO)c21`: the results for the Kd in test [3], in test [4] and in test [7] were 12 ± 3 µM, ~ 71 ± 22 μM and 12 ± 3 µM, respectively. In test [5], the binding result is given as “yes”. The “∆Tm” value in test [2] is “+16 °C”; in test [6], “+6.4 °C”.
